From PubChem BioAssay (NCI)
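Growth conditions: 96-well plates. Treatment: test compound, 48 hours, 5 concentrations. Analysis: linear interpolation between bracketing concentrations; unreached endpoints set to highest concentration. GI50 = concentration required for 50% inhibition of growth. TGI denotes the concentration required for complete inhibition of growth.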

How the values were obtained:
Test in all cases: NCI anticancer screen, dose series, 48 h
786-0 renal = system: 786-0 renal
A498 renal = system: A498 renal
A549 NSCLC = system: A549 NSCLC
ACHN renal = system: ACHN renal
BT-549 breast = system: BT-549 breast
CAKI-1 renal = system: CAKI-1 renal
CCRF-CEM leukemia = system: CCRF-CEM leukemia
COLO 205 colon = system: COLO 205 colon
DU-145 prostate = system: DU-145 prostate
EKVX NSCLC = system: EKVX NSCLC
HCC-2998 colon = system: HCC-2998 colon
HCT-116 colon = system: HCT-116 colon
HCT-15 colon = system: HCT-15 colon
HL-60(TB) leukemia = system: HL-60(TB) leukemia
HOP-62 NSCLC = system: HOP-62 NSCLC
HOP-92 NSCLC = system: HOP-92 NSCLC
HS 578T breast = system: HS 578T breast
HT29 colon = system: HT29 colon
IGROV1 ovarian = system: IGROV1 ovarian
K-562 leukemia = system: K-562 leukemia
KM12 colon = system: KM12 colon
LOX IMVI melanoma = system: LOX IMVI melanoma
M14 melanoma = system: M14 melanoma
MALME-3M melanoma = system: MALME-3M melanoma
MCF7 breast = system: MCF7 breast
MDA-MB-231 breast = system: MDA-MB-231 breast
MDA-MB-435 = system: MDA-MB-435
MOLT-4 leukemia = system: MOLT-4 leukemia
NCI-H226 lung = system: NCI-H226 lung
NCI-H23 lung = system: NCI-H23 lung
NCI-H460 lung = system: NCI-H460 lung
NCI-H522 lung = system: NCI-H522 lung
NCI/ADR-RES ovarian = system: NCI/ADR-RES ovarian
OVCAR-3 ovarian = system: OVCAR-3 ovarian
OVCAR-4 ovarian = system: OVCAR-4 ovarian
OVCAR-5 ovarian = system: OVCAR-5 ovarian
OVCAR-8 ovarian = system: OVCAR-8 ovarian
PC-3 prostate = system: PC-3 prostate
RPMI-8226 leukemia = system: RPMI-8226 leukemia
SF-268 CNS = system: SF-268 CNS
SF-295 CNS = system: SF-295 CNS
SF-539 CNS = system: SF-539 CNS
SK-MEL-2 melanoma = system: SK-MEL-2 melanoma
SK-MEL-28 melanoma = system: SK-MEL-28 melanoma
SK-MEL-5 melanoma = system: SK-MEL-5 melanoma
SK-OV-3 ovarian = system: SK-OV-3 ovarian
SN12C renal = system: SN12C renal
SNB-19 CNS = system: SNB-19 CNS
SNB-75 CNS = system: SNB-75 CNS
SR leukemia = system: SR leukemia
SW-620 colon = system: SW-620 colon
T-47D breast = system: T-47D breast
TK-10 renal = system: TK-10 renal
U251 CNS = system: U251 CNS
UACC-257 melanoma = system: UACC-257 melanoma
UACC-62 melanoma = system: UACC-62 melanoma
UO-31 renal = system: UO-31 renal

## C/C(=C(\c1ccc(O)cc1)c1ccc(OCCN2CCCCCC2)cc1)c1ccc(Cl)cc1
786-0 renal
  GI50: 2.15 µM
  TGI: 8.4 µM
A498 renal
  GI50: 8.32 µM
  TGI: 14.9 µM
A549 NSCLC
  GI50: 6.27 µM
  TGI: 18.4 µM
ACHN renal
  GI50: 5.26 µM
  TGI: 10.8 µM
BT-549 breast
  GI50: 6.12 µM
  TGI: 13 µM
CAKI-1 renal
  GI50: 5.39 µM
  TGI: 11 µM
CCRF-CEM leukemia
  GI50: 10.8 µM
  TGI: 45.8 µM
COLO 205 colon
  GI50: 1.21 µM
  TGI: 2.99 µM
DU-145 prostate
  GI50: 7.05 µM
  TGI: 13.2 µM
EKVX NSCLC
  GI50: 6.67 µM
  TGI: 12.8 µM
HCC-2998 colon
  GI50: 2.43 µM
  TGI: 8.05 µM
HCT-116 colon
  GI50: 2.21 µM
  TGI: 9.11 µM
HCT-15 colon
  GI50: 1.26 µM
  TGI: 3.95 µM
HL-60(TB) leukemia
  GI50: 5.98 µM
  TGI: 14.3 µM
HOP-62 NSCLC
  GI50: 7.03 µM
  TGI: 15.7 µM
HOP-92 NSCLC
  GI50: 2.07 µM
  TGI: 9.62 µM
HS 578T breast
  GI50: 5.06 µM
  TGI: 14.1 µM
HT29 colon
  GI50: 1.26 µM
  TGI: 4.59 µM
IGROV1 ovarian
  GI50: 5.79 µM
  TGI: 11.9 µM
K-562 leukemia
  GI50: 1.32 µM
  TGI: 6.03 µM
KM12 colon
  GI50: 3.37 µM
  TGI: 9.28 µM
LOX IMVI melanoma
  GI50: 1.66 µM
  TGI: 6.55 µM
M14 melanoma
  GI50: 1.6 µM
  TGI: 6.17 µM
MALME-3M melanoma
  GI50: 4.52 µM
  TGI: 9.89 µM
MCF7 breast
  GI50: 0.0385 µM
  TGI: 3.81 µM
MDA-MB-231 breast
  GI50: 7.02 µM
  TGI: 13.3 µM
MDA-MB-435
  GI50: 5.36 µM
  TGI: 11.1 µM
MOLT-4 leukemia
  GI50: 1.69 µM
  TGI: 7.25 µM
NCI-H226 lung
  GI50: 5.39 µM
  TGI: 12.2 µM
NCI-H23 lung
  GI50: 5.52 µM
  TGI: 11.3 µM
NCI-H460 lung
  GI50: 2.2 µM
  TGI: 7.27 µM
NCI-H522 lung
  GI50: 7.43 µM
  TGI: 15 µM
NCI/ADR-RES ovarian
  GI50: 5.57 µM
  TGI: 11.5 µM
OVCAR-3 ovarian
  GI50: 6.11 µM
  TGI: 12.1 µM
OVCAR-4 ovarian
  GI50: 4.83 µM
  TGI: 10.6 µM
OVCAR-5 ovarian
  GI50: 5.78 µM
  TGI: 11.5 µM
OVCAR-8 ovarian
  GI50: 6.94 µM
  TGI: 13.7 µM
PC-3 prostate
  GI50: 2.8 µM
  TGI: 11.1 µM
RPMI-8226 leukemia
  GI50: 1.86 µM
  TGI: 31 µM
SF-268 CNS
  GI50: 5.8 µM
  TGI: 12.7 µM
SF-295 CNS
  GI50: 4.79 µM
  TGI: 10.3 µM
SF-539 CNS
  GI50: 4.67 µM
  TGI: 10 µM
SK-MEL-2 melanoma
  GI50: 7.59 µM
  TGI: 14.5 µM
SK-MEL-28 melanoma
  GI50: 4.94 µM
  TGI: 10.4 µM
SK-MEL-5 melanoma
  GI50: 6.48 µM
  TGI: 12.5 µM
SK-OV-3 ovarian
  GI50: 7.74 µM
  TGI: 15 µM
SN12C renal
  GI50: 5.86 µM
  TGI: 11.9 µM
SNB-19 CNS
  GI50: 6.27 µM
  TGI: 12.3 µM
SNB-75 CNS
  GI50: 6.02 µM
  TGI: 12 µM
SR leukemia
  GI50: 1.28 µM
  TGI: 4.7 µM
SW-620 colon
  GI50: 3.17 µM
  TGI: 9.28 µM
T-47D breast
  GI50: 1.19 µM
  TGI: 11.1 µM
TK-10 renal
  GI50: 6.99 µM
  TGI: 14 µM
U251 CNS
  GI50: 3.28 µM
  TGI: 13.4 µM
UACC-257 melanoma
  GI50: 7.39 µM
  TGI: 14.8 µM
UACC-62 melanoma
  GI50: 6.35 µM
  TGI: 12.4 µM
UO-31 renal
  GI50: 4.53 µM
  TGI: 9.88 µM
